Where “and” joins values, the source holds several entries; their conditions need not be identical. Equal entries are not always repeated. Inconclusive results and toxic doses are left out. *1 amine or outer side, *2 acyl side, *3 side chain or, on linkers, in order; H or OH if unused. Where a SMILES comes first, the peptide text is derived from it. Bridges are numbered along the chain shown (N, C = ends). [ ]: non-standard residue; d: D form. The star is where a group is joined. X5 = CC(C)C(C)C(C(=O)[*:2])N(C)[*:1]; Picolinoyl(3-OH) = O=C(c1ncccc1O)*; NMePhg = CN[CH](C(=O)O)c1ccccc1; Hyp = O=C(O)[CH]1C[CH](O)CN1; Sar = CNCC(=O)O
Test system: B6C3F1 mice, B16 melanoma ip, median survival T/C
Assay: NCI In Vivo Anticancer Drug Screen. Data for tumor model B16 Melanoma (intraperitoneal) in B6C3F1 mice
Details: endpoint: median survival time, schedule: Q01DX009 (ip), higher = longer survival
Procedure, shortened: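 Readout: survival or tumor size in treated mice relative to vehicle controls (T/C). Model uses transplantable tumors grown in mice.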

[1] = dose: 25.0 mg/kg/injection, vehicle: Klucel (hydroxypropylcellulose) (HPC)
[2] = dose: 50.0 mg/kg/injection, vehicle: Klucel (hydroxypropylcellulose) (HPC)
[3] = dose: 100.0 mg/kg/injection, vehicle: Klucel (hydroxypropylcellulose) (HPC)
[4] = dose: 200.0 mg/kg/injection, vehicle: Klucel (hydroxypropylcellulose) (HPC)
[5] = dose: 12.5 mg/kg/injection, vehicle: saline with Tween-80
[6] = dose: 25.0 mg/kg/injection, vehicle: saline with Tween-80
[7] = dose: 25.0 mg/kg/injection, vehicle: suspension in saline
[8] = dose: 50.0 mg/kg/injection, vehicle: saline with Tween-80
[9] = dose: 50.0 mg/kg/injection, vehicle: suspension in saline
[10] = dose: 100.0 mg/kg/injection, vehicle: saline with Tween-80
[11] = dose: 100.0 mg/kg/injection, vehicle: suspension in saline
[12] = dose: 200.0 mg/kg/injection, vehicle: saline with Tween-80
[13] = dose: 200.0 mg/kg/injection, vehicle: suspension in saline

## COc1cc2c(c(OC)c1OC)-c1ccc(OC)c(=O)cc1[C@@H](NC(=O)CCl)CC2
dose: 0.12 mg/kg/injection, vehicle: saline with Tween-80
  T/C: 154 % of control
dose: 0.25 mg/kg/injection, vehicle: saline with Tween-80
  T/C: 154 % of control

## O=C1C=C(Nc2ccccc2)c2ccccc2C1=O
[1]
  T/C: 104 % of control
[2]
  T/C: 96 % of control
[3]
  T/C: 91 % of control

## Cc1ncc(O)c(CO)c1O
dose: 0.78 mg/kg/injection, vehicle: saline
  T/C: 102 % of control
dose: 1.56 mg/kg/injection, vehicle: saline
  T/C: 102 % of control
dose: 3.13 mg/kg/injection, vehicle: saline
  T/C: 99 % of control
dose: 6.25 mg/kg/injection, vehicle: saline
  T/C: 105 % of control
dose: 12.5 mg/kg/injection, vehicle: saline
  T/C: 101 % of control
dose: 25.0 mg/kg/injection, vehicle: saline
  T/C: 91 % of control
dose: 50.0 mg/kg/injection, vehicle: saline
  T/C: 96 % of control

## CC(C)CC1NC(=O)C(NC(=O)c2ncccc2O)C(C)OC(=O)C(c2ccccc2)N(C)C(=O)C(C)NC(=O)C(C(C)C(C)C)N(C)C(=O)CN(C)C(=O)C2CC(O)CN2C1=O (configuration not stated) ({Picolinoyl(3-OH)}-TL[Hyp][Sar][X5]A[NMePhg]; ester 1-C; configuration not given here)
[2]
  T/C: 103 % of control
[3]
  T/C: 107 % of control
[4]
  T/C: 111 % of control

## COc1cc([C@@H]2c3cc4c(cc3[C@@H](OC3OC5CO[C@@H](c6cccs6)OC5C(O)C3O)[C@H]3COC(=O)[C@H]23)OCO4)cc(OC)c1O (some centres not stated)
dose: 0.25 mg/kg/injection, vehicle: saline
  T/C: 110 % of control
dose: 0.5 mg/kg/injection, vehicle: saline
  T/C: 123 % of control
dose: 1.0 mg/kg/injection, vehicle: saline
  T/C: 122 % of control
dose: 4.0 mg/kg/injection, vehicle: saline
  T/C: 162 % of control

## O=C1NC(O)c2ccccc2O1 (configuration not stated)
[5]
  T/C: 99 % of control
dose: 12.5 mg/kg/injection, vehicle: suspension in saline
  T/C: 101 % of control
[6]
  T/C: 103 % of control
[7]
  T/C: 103 % of control
[8]
  T/C: 103 % of control
[9]
  T/C: 101 % of control
[10]
  T/C: 106 % of control
[11]
  T/C: 98 % of control
[12]
  T/C: 114 % of control
[13]
  T/C: 100 % of control
dose: 400.0 mg/kg/injection, vehicle: suspension in saline
  T/C: 95 % of control

## CCOC(=O)C1(c2ccccc2)C(=O)Oc2ccccc21 (configuration not stated)
[5]
  T/C: 99 % of control and 100 % of control
[6]
  T/C: 101 % of control and 102 % of control
[8]
  T/C: 95 % of control and 105 % of control
[10]
  T/C: 93 % of control and 95 % of control
[12]
  T/C: 93 % of control and 100 % of control
dose: 400.0 mg/kg/injection, vehicle: saline with Tween-80
  T/C: 91 % of control

## N#CC(C#N)=NNc1ccc2cn[nH]c2c1
dose: 12.5 mg/kg/injection, vehicle: Klucel (hydroxypropylcellulose) (HPC)
  T/C: 108 % of control
[1]
  T/C: 100 % of control
[2]
  T/C: 106 % of control
[3]
  T/C: 102 % of control

## C1CNCCN1
[7]
  T/C: 103 % of control
[9]
  T/C: 111 % of control
[11]
  T/C: 109 % of control
[13]
  T/C: 111 % of control

## CC(OCc1ccccc1)C(NC(=O)OC(C)(C)C)C(=O)O (configuration not stated)
[3]
  T/C: 92 % of control
[4]
  T/C: 100 % of control
dose: 400.0 mg/kg/injection, vehicle: Klucel (hydroxypropylcellulose) (HPC)
  T/C: 96 % of control

From PubChem BioAssay AID200 (DTP/NCI, 2004)
